Test results reported in ChEMBL document CHEMBL3885881, “DrugMatrix”.

Species on record: Rattus norvegicus
Experiment: DrugMatrix - Regimen: Daily Repeat
Type: toxicity, organism-based, Sprague-Dawley
Parameters: regimen Daily Repeat, gender Male, age 6-8 weeks
Conditions: in vivo, po, 2000 mg/kg, route oral GAVAGE, dose level High, vehicle .5 % CMC; for ABSOLUTE BASOPHIL / ABSOLUTE EOSINOPHIL / ABSOLUTE LYMPHOCYTE / ABSOLUTE MONOCYTE / ABSOLUTE SEGMENTED NEUTROPHIL / BASOPHIL / EOSINOPHIL / ERYTHROCYTE COUNT / HEMATOCRIT / HEMOGLOBIN / LEUKOCYTE COUNT / LYMPHOCYTE / MEAN CORPUSCULAR HEMOGLOBIN / MEAN CORPUSCULAR HEMOGLOBIN CONCENTRATION / MEAN CORPUSCULAR VOLUME / MONOCYTE / NEUTROPHIL / NUCLEATED RED BLOOD CELLS / PLATELET COUNT: tissue Blood; for ALANINE AMINOTRANSFERASE / ALBUMIN / ALKALINE PHOSPHATASE / ASPARTATE AMINOTRANSFERASE / BLOOD UREA NITROGEN / CARBON DIOXIDE / CHLORIDE / CHOLESTEROL / CREATINE PHOSPHOKINASE / CREATININE / GLUCOSE / LACTATE DEHYDROGENASE / LIPASE / PHOSPHORUS / POTASSIUM / SODIUM / TOTAL BILIRUBIN / TOTAL PROTEIN / URIC ACID: tissue Plasma

SMILES: NC[C@H]1CC[C@H](C(=O)O)CC1 [TRANEXAMIC ACID]
- ABSOLUTE BASOPHIL (72 h, time 3 day): 0 CELLS/uL
- ABSOLUTE EOSINOPHIL (72 h, time 3 day): 131 CELLS/uL
- ABSOLUTE LYMPHOCYTE (72 h, time 3 day): 11124 CELLS/uL
- ABSOLUTE MONOCYTE (72 h, time 3 day): 58.67 CELLS/uL
- ABSOLUTE SEGMENTED NEUTROPHIL (72 h, time 3 day): 1786.33 CELLS/uL
- BASOPHIL (72 h, time 3 day): 0%
- EOSINOPHIL (72 h, time 3 day): 1%
- ERYTHROCYTE COUNT (72 h, time 3 day): 5.38 x10E6/uL
- HEMATOCRIT (72 h, time 3 day): 32.57%
- HEMOGLOBIN (72 h, time 3 day): 12.97 G/DL
- LEUKOCYTE COUNT (72 h, time 3 day): 13.1 x10E3/uL
- LYMPHOCYTE (72 h, time 3 day): 84%
- MEAN CORPUSCULAR HEMOGLOBIN (72 h, time 3 day): 24.13 pg
- MEAN CORPUSCULAR HEMOGLOBIN CONCENTRATION (72 h, time 3 day): 39.83 G/DL
- MEAN CORPUSCULAR VOLUME (72 h, time 3 day): 60.57 fL
- MONOCYTE (72 h, time 3 day): 0.33%
- NEUTROPHIL (72 h, time 3 day): 14.67%
- NUCLEATED RED BLOOD CELLS (72 h, time 3 day): 0 /100WBC
- PLATELET COUNT (72 h, time 3 day): 1338.33 x10E3/uL
- ALANINE AMINOTRANSFERASE (72 h, time 3 day): 49.67 u/L
- ALBUMIN (72 h, time 3 day): 3.9 G/DL
- ALKALINE PHOSPHATASE (72 h, time 3 day): 293.67 u/L
- ASPARTATE AMINOTRANSFERASE (72 h, time 3 day): 92 u/L
- BLOOD UREA NITROGEN (72 h, time 3 day): 15.33 mg/dL
- CARBON DIOXIDE (72 h, time 3 day): 25.33 mmol/L
- CHLORIDE (72 h, time 3 day): 100 MEQ/L
- CHOLESTEROL (72 h, time 3 day): 71.33 mg/dL
- CREATINE PHOSPHOKINASE (72 h, time 3 day): 923.33 u/L
- CREATININE (72 h, time 3 day): 0.15 mg/dL
- GLUCOSE (72 h, time 3 day): 161 mg/dL
- LACTATE DEHYDROGENASE (72 h, time 3 day): 154.33 u/L
- LIPASE (72 h, time 3 day): 10.33 u/L
- PHOSPHORUS (72 h, time 3 day): 12.03 mg/dL
- POTASSIUM (72 h, time 3 day): 8.02 MEQ/L
- SODIUM (72 h, time 3 day): 142.27 MEQ/L
- TOTAL BILIRUBIN (72 h, time 3 day): 0.1 mg/dL
- TOTAL PROTEIN (72 h, time 3 day): 5.47 G/DL
- URIC ACID (72 h, time 3 day): 1.53 mg/dL
- ABSOLUTE BASOPHIL (120 h, time 5 day): 0 CELLS/uL
- ABSOLUTE EOSINOPHIL (120 h, time 5 day): 40.33 CELLS/uL
- ABSOLUTE LYMPHOCYTE (120 h, time 5 day): 11921 CELLS/uL
- ABSOLUTE MONOCYTE (120 h, time 5 day): 0 CELLS/uL
- ABSOLUTE SEGMENTED NEUTROPHIL (120 h, time 5 day): 1438.67 CELLS/uL
- BASOPHIL (120 h, time 5 day): 0%
- EOSINOPHIL (120 h, time 5 day): 0.33%
- ERYTHROCYTE COUNT (120 h, time 5 day): 5.89 x10E6/uL
- HEMATOCRIT (120 h, time 5 day): 34.97%
- HEMOGLOBIN (120 h, time 5 day): 14.13 G/DL
- LEUKOCYTE COUNT (120 h, time 5 day): 13.4 x10E3/uL
- LYMPHOCYTE (120 h, time 5 day): 89%
- MEAN CORPUSCULAR HEMOGLOBIN (120 h, time 5 day): 24.03 pg
- MEAN CORPUSCULAR HEMOGLOBIN CONCENTRATION (120 h, time 5 day): 40.43 G/DL
- MEAN CORPUSCULAR VOLUME (120 h, time 5 day): 59.4 fL
- MONOCYTE (120 h, time 5 day): 0%
- NEUTROPHIL (120 h, time 5 day): 10.67%
- NUCLEATED RED BLOOD CELLS (120 h, time 5 day): 0 /100WBC
- PLATELET COUNT (120 h, time 5 day): 1475.33 x10E3/uL
- ALANINE AMINOTRANSFERASE (120 h, time 5 day): 55 u/L
- ALBUMIN (120 h, time 5 day): 4.23 G/DL
- ALKALINE PHOSPHATASE (120 h, time 5 day): 354.33 u/L
- ASPARTATE AMINOTRANSFERASE (120 h, time 5 day): 79 u/L
- BLOOD UREA NITROGEN (120 h, time 5 day): 17.33 mg/dL
- CARBON DIOXIDE (120 h, time 5 day): 25.67 mmol/L
- CHLORIDE (120 h, time 5 day): 102 MEQ/L
- CHOLESTEROL (120 h, time 5 day): 64.67 mg/dL
- CREATINE PHOSPHOKINASE (120 h, time 5 day): 364.33 u/L
- CREATININE (120 h, time 5 day): 0.17 mg/dL
- GLUCOSE (120 h, time 5 day): 150 mg/dL
- LACTATE DEHYDROGENASE (120 h, time 5 day): 135.67 u/L
- LIPASE (120 h, time 5 day): 10 u/L
- PHOSPHORUS (120 h, time 5 day): 12.53 mg/dL
- POTASSIUM (120 h, time 5 day): 7.4 MEQ/L
- SODIUM (120 h, time 5 day): 145 MEQ/L
- TOTAL BILIRUBIN (120 h, time 5 day): 0.2 mg/dL
- TOTAL PROTEIN (120 h, time 5 day): 6.1 G/DL
- URIC ACID (120 h, time 5 day): 2.6 mg/dL
